{
  "source": "paper PMC6886798",
  "about": "“Expression of myeloid Src-family kinases is associated with poor prognosis in AML and influences Flt3-ITD kinase inhibitor acquired resistance” (PLoS ONE, 2019)",
  "test_in_all_cases": "KINOMEscan",
  "type_in_all_cases": "binding",
  "conditions_in_all_cases": "1.0 µM",
  "key": {"ANKK1": {"target": "T1, ANKK1 (Homo sapiens, UniProt Q8NFD2)", "T1 construct": "purchased Eurofins/DiscoverX KINOMEscan scanMAX", "experimental": "(§1) Kinase retention to the immobilized ligand is then measured using quantitative real-time PCR for each kinase-specific DNA barcode."}, "BRSK2": {"target": "T2, BRSK2 (Homo sapiens, UniProt Q8IWQ3)", "T2 construct": "purchased Eurofins/DiscoverX KINOMEscan scanMAX", "experimental": "as §1"}, "CLK2": {"target": "T3, CLK2 (Homo sapiens, UniProt P49760)", "T3 construct": "purchased Eurofins/DiscoverX KINOMEscan scanMAX", "T3 sequence (P49760 whole entry)": "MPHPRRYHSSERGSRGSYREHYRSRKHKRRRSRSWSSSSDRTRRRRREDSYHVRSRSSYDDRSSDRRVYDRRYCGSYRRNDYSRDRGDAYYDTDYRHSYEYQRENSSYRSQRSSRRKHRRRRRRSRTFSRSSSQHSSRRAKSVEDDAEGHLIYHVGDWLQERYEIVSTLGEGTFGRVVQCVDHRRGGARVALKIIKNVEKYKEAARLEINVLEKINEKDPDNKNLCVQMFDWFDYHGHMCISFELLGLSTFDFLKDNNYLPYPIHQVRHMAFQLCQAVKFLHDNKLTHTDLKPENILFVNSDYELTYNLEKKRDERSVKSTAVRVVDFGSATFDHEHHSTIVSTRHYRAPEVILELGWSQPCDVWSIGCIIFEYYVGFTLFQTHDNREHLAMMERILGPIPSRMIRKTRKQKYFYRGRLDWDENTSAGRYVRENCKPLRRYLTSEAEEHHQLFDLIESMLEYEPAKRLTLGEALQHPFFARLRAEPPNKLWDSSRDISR", "experimental": "as §1"}, "CSF1R-autoinhibited": {"target": "T4, CSF1R-autoinhibited (Homo sapiens, UniProt P07333)", "T4 construct": "purchased Eurofins/DiscoverX KINOMEscan scanMAX", "experimental": "as §1"}, "CTK": {"target": "T5, CTK (Homo sapiens, UniProt P42679)", "T5 construct": "purchased Eurofins/DiscoverX KINOMEscan scanMAX", "experimental": "as §1"}, "DAPK1": {"target": "T6, DAPK1 (Homo sapiens, UniProt P53355)", "T6 construct": "purchased Eurofins/DiscoverX KINOMEscan scanMAX", "experimental": "as §1"}, "DLK": {"target": "T7, DLK (Homo sapiens, UniProt Q12852)", "T7 construct": "purchased Eurofins/DiscoverX KINOMEscan scanMAX", "experimental": "as §1"}, "DRAK2": {"target": "T8, DRAK2 (Homo sapiens, UniProt O94768)", "T8 construct": "purchased Eurofins/DiscoverX KINOMEscan scanMAX", "T8 sequence (O94768 whole entry)": "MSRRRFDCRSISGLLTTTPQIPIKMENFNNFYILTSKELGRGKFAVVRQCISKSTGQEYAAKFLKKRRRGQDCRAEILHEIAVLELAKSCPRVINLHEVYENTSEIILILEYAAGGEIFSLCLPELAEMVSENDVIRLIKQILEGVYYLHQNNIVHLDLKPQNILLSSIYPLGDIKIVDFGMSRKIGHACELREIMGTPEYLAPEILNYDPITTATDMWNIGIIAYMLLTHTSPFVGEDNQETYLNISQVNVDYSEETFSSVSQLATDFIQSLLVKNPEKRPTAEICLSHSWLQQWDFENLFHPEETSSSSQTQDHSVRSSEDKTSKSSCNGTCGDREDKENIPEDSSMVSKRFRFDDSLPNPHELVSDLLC", "experimental": "as §1"}, "EPHB4": {"target": "T9, EPHB4 (Homo sapiens, UniProt P54760)", "T9 construct": "purchased Eurofins/DiscoverX KINOMEscan scanMAX", "T9 sequence (P54760 16-987)": "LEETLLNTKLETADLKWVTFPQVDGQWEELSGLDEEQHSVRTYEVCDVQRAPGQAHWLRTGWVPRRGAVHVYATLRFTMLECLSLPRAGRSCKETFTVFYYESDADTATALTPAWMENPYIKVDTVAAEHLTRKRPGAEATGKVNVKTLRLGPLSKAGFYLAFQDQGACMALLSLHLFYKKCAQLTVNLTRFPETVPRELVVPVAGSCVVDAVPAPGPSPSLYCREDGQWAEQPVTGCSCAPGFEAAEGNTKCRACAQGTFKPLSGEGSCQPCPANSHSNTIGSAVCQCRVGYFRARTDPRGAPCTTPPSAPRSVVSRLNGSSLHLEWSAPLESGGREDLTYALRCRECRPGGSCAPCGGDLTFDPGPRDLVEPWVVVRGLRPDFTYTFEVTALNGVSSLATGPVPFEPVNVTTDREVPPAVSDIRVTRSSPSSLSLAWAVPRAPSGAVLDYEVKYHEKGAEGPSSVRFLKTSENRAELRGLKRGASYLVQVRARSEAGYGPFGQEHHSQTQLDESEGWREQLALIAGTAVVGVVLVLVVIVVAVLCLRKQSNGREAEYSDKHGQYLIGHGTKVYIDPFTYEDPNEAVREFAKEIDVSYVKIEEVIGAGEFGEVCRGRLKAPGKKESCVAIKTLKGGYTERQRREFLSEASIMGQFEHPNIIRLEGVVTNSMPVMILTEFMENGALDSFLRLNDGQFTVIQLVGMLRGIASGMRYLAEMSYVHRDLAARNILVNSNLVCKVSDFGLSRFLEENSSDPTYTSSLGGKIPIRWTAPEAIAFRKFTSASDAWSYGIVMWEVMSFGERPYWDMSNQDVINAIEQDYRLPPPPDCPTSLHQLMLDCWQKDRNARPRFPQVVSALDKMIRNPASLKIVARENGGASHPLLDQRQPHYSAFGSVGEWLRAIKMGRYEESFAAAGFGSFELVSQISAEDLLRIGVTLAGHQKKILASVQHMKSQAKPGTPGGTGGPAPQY", "experimental": "as §1"}, "FGFR1": {"target": "T10, FGFR1 (Homo sapiens, UniProt P11362)", "T10 construct": "purchased Eurofins/DiscoverX KINOMEscan scanMAX", "T10 sequence (P11362 22-822)": "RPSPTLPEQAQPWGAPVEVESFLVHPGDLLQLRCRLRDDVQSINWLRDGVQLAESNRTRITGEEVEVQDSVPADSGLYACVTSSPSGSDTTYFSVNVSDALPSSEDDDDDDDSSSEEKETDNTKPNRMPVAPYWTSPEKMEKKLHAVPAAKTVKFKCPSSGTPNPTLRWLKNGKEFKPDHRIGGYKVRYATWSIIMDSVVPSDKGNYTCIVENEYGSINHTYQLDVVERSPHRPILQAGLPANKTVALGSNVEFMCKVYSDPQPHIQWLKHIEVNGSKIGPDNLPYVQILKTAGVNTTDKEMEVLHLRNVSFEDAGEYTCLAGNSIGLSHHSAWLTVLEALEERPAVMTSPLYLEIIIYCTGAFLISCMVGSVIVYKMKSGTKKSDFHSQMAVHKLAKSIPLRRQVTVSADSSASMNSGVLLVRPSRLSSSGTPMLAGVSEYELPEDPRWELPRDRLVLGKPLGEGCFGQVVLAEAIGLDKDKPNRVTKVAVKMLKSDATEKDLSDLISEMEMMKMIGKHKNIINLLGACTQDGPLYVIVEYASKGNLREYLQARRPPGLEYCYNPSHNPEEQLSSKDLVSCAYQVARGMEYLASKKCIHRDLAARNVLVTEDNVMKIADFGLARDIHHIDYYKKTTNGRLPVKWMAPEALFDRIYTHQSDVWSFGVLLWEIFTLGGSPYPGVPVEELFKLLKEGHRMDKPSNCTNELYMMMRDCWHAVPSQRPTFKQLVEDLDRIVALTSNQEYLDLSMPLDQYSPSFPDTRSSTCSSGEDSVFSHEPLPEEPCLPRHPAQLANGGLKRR", "experimental": "as §1"}, "GRK2": {"target": "T11, GRK2 (Homo sapiens, UniProt P25098)", "T11 construct": "purchased Eurofins/DiscoverX KINOMEscan scanMAX", "experimental": "as §1"}, "GRK4": {"target": "T12, GRK4 (Homo sapiens, UniProt P32298)", "T12 construct": "purchased Eurofins/DiscoverX KINOMEscan scanMAX", "experimental": "as §1"}, "IKK-beta": {"target": "T13, IKK-beta (Homo sapiens, UniProt O14920)", "T13 construct": "purchased Eurofins/DiscoverX KINOMEscan scanMAX", "experimental": "as §1"}, "IKK-epsilon": {"target": "T14, IKK-epsilon (Homo sapiens, UniProt Q14164)", "T14 construct": "purchased Eurofins/DiscoverX KINOMEscan scanMAX", "T14 sequence (Q14164 whole entry)": "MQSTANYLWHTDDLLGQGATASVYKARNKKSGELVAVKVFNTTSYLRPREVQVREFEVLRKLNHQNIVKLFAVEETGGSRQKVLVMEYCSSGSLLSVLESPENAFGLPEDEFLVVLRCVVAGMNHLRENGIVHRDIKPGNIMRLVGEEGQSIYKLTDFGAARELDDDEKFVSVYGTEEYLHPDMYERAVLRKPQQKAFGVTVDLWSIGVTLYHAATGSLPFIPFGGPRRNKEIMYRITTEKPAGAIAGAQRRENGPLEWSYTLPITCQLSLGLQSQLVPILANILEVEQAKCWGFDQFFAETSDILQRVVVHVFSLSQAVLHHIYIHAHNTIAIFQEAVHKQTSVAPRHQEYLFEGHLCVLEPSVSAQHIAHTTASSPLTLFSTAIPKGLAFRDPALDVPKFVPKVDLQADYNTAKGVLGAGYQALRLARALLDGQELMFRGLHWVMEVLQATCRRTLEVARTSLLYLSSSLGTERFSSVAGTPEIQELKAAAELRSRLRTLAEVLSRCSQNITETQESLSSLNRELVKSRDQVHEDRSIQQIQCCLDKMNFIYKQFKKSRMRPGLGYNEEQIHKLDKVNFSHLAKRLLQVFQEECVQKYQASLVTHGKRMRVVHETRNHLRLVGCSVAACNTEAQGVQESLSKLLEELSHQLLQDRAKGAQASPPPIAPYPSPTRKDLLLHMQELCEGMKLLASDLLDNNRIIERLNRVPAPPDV", "experimental": "as §1"}, "INSRR": {"target": "T15, INSRR (Homo sapiens, UniProt P14616)", "T15 construct": "purchased Eurofins/DiscoverX KINOMEscan scanMAX", "experimental": "as §1"}, "[1]": {"target": "T16, JAK2(JH1domain-catalytic) (Homo sapiens, UniProt O60674)", "T16 construct": "JAK2(JH1domain-catalytic); purchased Eurofins/DiscoverX KINOMEscan scanMAX", "T16 sequence (O60674 840-1132 limits assumed)": "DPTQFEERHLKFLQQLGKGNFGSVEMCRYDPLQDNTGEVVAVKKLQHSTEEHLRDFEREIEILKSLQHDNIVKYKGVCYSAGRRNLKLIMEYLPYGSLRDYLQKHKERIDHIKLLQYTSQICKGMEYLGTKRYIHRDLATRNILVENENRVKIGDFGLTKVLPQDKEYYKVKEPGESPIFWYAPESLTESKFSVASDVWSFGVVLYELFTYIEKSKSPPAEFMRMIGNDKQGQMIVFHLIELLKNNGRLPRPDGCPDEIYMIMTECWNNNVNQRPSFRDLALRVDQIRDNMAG", "experimental": "as §1"}, "LKB1": {"target": "T17, LKB1 (Homo sapiens, UniProt Q15831)", "T17 construct": "purchased Eurofins/DiscoverX KINOMEscan scanMAX", "experimental": "as §1"}, "MAP4K2": {"target": "T18, MAP4K2 (Homo sapiens, UniProt Q12851)", "T18 construct": "purchased Eurofins/DiscoverX KINOMEscan scanMAX", "experimental": "as §1"}, "MEK1": {"target": "T19, MEK1 (Homo sapiens, UniProt Q02750)", "T19 construct": "purchased Eurofins/DiscoverX KINOMEscan scanMAX", "experimental": "as §1"}, "MEK3": {"target": "T20, MEK3 (Homo sapiens, UniProt P46734)", "T20 construct": "purchased Eurofins/DiscoverX KINOMEscan scanMAX", "experimental": "as §1"}, "MINK": {"target": "T21, MINK (Homo sapiens, UniProt Q8N4C8)", "T21 construct": "purchased Eurofins/DiscoverX KINOMEscan scanMAX", "experimental": "as §1"}, "MKK7": {"target": "T22, MKK7 (Homo sapiens, UniProt O14733)", "T22 construct": "purchased Eurofins/DiscoverX KINOMEscan scanMAX", "experimental": "as §1"}, "MYLK2": {"target": "T23, MYLK2 (Homo sapiens, UniProt Q9H1R3)", "T23 construct": "purchased Eurofins/DiscoverX KINOMEscan scanMAX", "experimental": "as §1"}, "MYO3B": {"target": "T24, MYO3B (Homo sapiens, UniProt Q8WXR4)", "T24 construct": "purchased Eurofins/DiscoverX KINOMEscan scanMAX", "experimental": "as §1"}, "NIK": {"target": "T25, NIK (Homo sapiens, UniProt Q99558)", "T25 construct": "purchased Eurofins/DiscoverX KINOMEscan scanMAX", "experimental": "as §1"}, "PDGFRB": {"target": "T26, PDGFRB (Homo sapiens, UniProt P09619)", "T26 construct": "purchased Eurofins/DiscoverX KINOMEscan scanMAX", "experimental": "as §1"}, "PFTK1": {"target": "T27, PFTK1 (Homo sapiens, UniProt O94921)", "T27 construct": "purchased Eurofins/DiscoverX KINOMEscan scanMAX", "T27 sequence (O94921 whole entry)": "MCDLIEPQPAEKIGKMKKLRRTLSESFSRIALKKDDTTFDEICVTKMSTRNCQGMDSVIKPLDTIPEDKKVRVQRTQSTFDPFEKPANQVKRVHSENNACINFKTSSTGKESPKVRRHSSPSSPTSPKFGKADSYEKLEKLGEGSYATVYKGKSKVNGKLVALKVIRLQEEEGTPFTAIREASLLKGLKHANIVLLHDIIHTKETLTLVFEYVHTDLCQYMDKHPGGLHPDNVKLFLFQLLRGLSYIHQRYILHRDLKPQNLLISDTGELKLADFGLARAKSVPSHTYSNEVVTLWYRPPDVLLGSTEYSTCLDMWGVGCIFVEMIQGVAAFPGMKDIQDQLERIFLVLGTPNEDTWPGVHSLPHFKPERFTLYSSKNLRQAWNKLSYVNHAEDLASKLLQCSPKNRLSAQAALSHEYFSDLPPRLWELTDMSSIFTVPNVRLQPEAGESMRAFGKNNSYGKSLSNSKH", "experimental": "as §1"}, "PIKFYVE": {"target": "T28, PIKFYVE (Homo sapiens, UniProt Q9Y2I7)", "T28 construct": "purchased Eurofins/DiscoverX KINOMEscan scanMAX", "experimental": "as §1"}, "PKMYT1": {"target": "T29, PKMYT1 (Homo sapiens, UniProt Q99640)", "T29 construct": "purchased Eurofins/DiscoverX KINOMEscan scanMAX", "experimental": "as §1"}, "PRKCQ": {"target": "T30, PRKCQ (Homo sapiens, UniProt Q04759)", "T30 construct": "purchased Eurofins/DiscoverX KINOMEscan scanMAX", "experimental": "as §1"}, "PRKD2": {"target": "T31, PRKD2 (Homo sapiens, UniProt Q9BZL6)", "T31 construct": "purchased Eurofins/DiscoverX KINOMEscan scanMAX", "T31 sequence (Q9BZL6 whole entry)": "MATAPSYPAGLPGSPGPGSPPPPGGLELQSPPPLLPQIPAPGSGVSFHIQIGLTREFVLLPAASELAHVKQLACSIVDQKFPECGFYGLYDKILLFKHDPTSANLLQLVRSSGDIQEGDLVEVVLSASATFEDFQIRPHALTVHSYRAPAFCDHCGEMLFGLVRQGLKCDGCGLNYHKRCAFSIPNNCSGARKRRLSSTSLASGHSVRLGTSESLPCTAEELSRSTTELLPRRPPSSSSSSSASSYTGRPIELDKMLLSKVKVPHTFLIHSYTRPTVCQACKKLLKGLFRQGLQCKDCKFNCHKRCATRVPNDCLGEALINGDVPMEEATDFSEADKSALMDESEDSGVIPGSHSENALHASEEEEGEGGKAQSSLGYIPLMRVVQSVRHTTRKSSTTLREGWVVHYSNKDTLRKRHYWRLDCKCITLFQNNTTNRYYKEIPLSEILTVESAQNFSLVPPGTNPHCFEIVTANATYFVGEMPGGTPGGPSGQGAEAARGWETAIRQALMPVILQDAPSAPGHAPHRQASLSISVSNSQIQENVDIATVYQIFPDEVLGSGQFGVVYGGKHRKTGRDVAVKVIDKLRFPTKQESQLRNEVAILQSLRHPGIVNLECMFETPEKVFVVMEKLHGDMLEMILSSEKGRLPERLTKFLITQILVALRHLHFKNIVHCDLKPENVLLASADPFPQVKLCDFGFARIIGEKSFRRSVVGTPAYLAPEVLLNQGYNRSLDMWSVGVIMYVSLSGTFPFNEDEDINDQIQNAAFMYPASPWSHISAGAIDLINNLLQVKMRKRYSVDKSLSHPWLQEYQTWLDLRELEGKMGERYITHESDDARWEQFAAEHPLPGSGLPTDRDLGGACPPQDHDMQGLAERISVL", "experimental": "as §1"}, "RIPK1": {"target": "T32, RIPK1 (Homo sapiens, UniProt Q13546)", "T32 construct": "purchased Eurofins/DiscoverX KINOMEscan scanMAX", "experimental": "as §1"}, "[2]": {"target": "T33, RPS6KA4(Kin.Dom.1-N-terminal) (Homo sapiens, UniProt O75676)", "T33 construct": "RPS6KA4(Kin.Dom.1-N-terminal); purchased Eurofins/DiscoverX KINOMEscan scanMAX", "experimental": "as §1"}, "[3]": {"target": "T34, RSK2(Kin.Dom.2-C-terminal) (Homo sapiens, UniProt P51812)", "T34 construct": "RSK2(Kin.Dom.2-C-terminal); purchased Eurofins/DiscoverX KINOMEscan scanMAX", "experimental": "as §1"}, "SNRK": {"target": "T35, SNRK (Homo sapiens, UniProt Q9NRH2)", "T35 construct": "purchased Eurofins/DiscoverX KINOMEscan scanMAX", "experimental": "as §1"}, "TNK2": {"target": "T36, TNK2 (Homo sapiens, UniProt Q07912)", "T36 construct": "purchased Eurofins/DiscoverX KINOMEscan scanMAX", "experimental": "as §1"}, "TRKB": {"target": "T37, TRKB (Homo sapiens, UniProt Q16620)", "T37 construct": "purchased Eurofins/DiscoverX KINOMEscan scanMAX", "experimental": "as §1"}, "TTK": {"target": "T38, TTK (Homo sapiens, UniProt P33981)", "T38 construct": "DNA tag (qPCR barcode); purchased Eurofins/DiscoverX KINOMEscan scanMAX", "experimental": "as §1"}, "ULK3": {"target": "T39, ULK3 (Homo sapiens, UniProt Q6PHR2)", "T39 construct": "DNA tag (qPCR barcode); purchased Eurofins/DiscoverX KINOMEscan scanMAX", "experimental": "as §1"}, "VRK2": {"target": "T40, VRK2 (Homo sapiens, UniProt Q86Y07)", "T40 construct": "DNA tag (qPCR barcode); purchased Eurofins/DiscoverX KINOMEscan scanMAX", "experimental": "as §1"}, "YANK3": {"target": "T41, YANK3 (Homo sapiens, UniProt Q86UX6)", "T41 construct": "purchased Eurofins/DiscoverX (KINOMEscan scanMAX service)", "experimental": "as §1"}},
  "data": [
    {"molecule": "CN1CCN(C2CCC(n3cc(-c4ccc(Oc5ccccc5)cc4)c4c(N)ncnc43)CC2)CC1", "note": "(centres unmarked) [A-419259]", "values": [
      {"measurement": "% Control", "setting": "ANKK1", "value": 73, "unit": "%"},
      {"measurement": "% Control", "setting": "BRSK2", "value": 10, "unit": "%"},
      {"measurement": "% Control", "setting": "CLK2", "value": 100, "unit": "%"},
      {"measurement": "% Control", "setting": "CSF1R-autoinhibited", "value": 57, "unit": "%"},
      {"measurement": "% Control", "setting": "CTK", "value": 89, "unit": "%"},
      {"measurement": "% Control", "setting": "DAPK1", "value": 99, "unit": "%"},
      {"measurement": "% Control", "setting": "DLK", "value": 54, "unit": "%"},
      {"measurement": "% Control", "setting": "DRAK2", "value": 93, "unit": "%"},
      {"measurement": "% Control", "setting": "EPHB4", "value": 100, "unit": "%"},
      {"measurement": "% Control", "setting": "FGFR1", "value": 1.6, "unit": "%"},
      {"measurement": "% Control", "setting": "GRK2", "value": 100, "unit": "%"},
      {"measurement": "% Control", "setting": "GRK4", "value": 100, "unit": "%"},
      {"measurement": "% Control", "setting": "IKK-beta", "value": 90, "unit": "%"},
      {"measurement": "% Control", "setting": "IKK-epsilon", "value": 100, "unit": "%"},
      {"measurement": "% Control", "setting": "INSRR", "value": 86, "unit": "%"},
      {"measurement": "% Control", "setting": "[1]", "value": 100, "unit": "%"},
      {"measurement": "% Control", "setting": "LKB1", "value": 100, "unit": "%"},
      {"measurement": "% Control", "setting": "MAP4K2", "value": 98, "unit": "%"},
      {"measurement": "% Control", "setting": "MEK1", "value": 0.1, "unit": "%"},
      {"measurement": "% Control", "setting": "MEK3", "value": 91, "unit": "%"},
      {"measurement": "% Control", "setting": "MINK", "value": 30, "unit": "%"},
      {"measurement": "% Control", "setting": "MKK7", "value": 46, "unit": "%"},
      {"measurement": "% Control", "setting": "MYLK2", "value": 95, "unit": "%"},
      {"measurement": "% Control", "setting": "MYO3B", "value": 17, "unit": "%"},
      {"measurement": "% Control", "setting": "NIK", "value": 100, "unit": "%"},
      {"measurement": "% Control", "setting": "PDGFRB", "value": 0, "unit": "%"},
      {"measurement": "% Control", "setting": "PFTK1", "value": 63, "unit": "%"},
      {"measurement": "% Control", "setting": "PIKFYVE", "value": 78, "unit": "%"},
      {"measurement": "% Control", "setting": "PKMYT1", "value": 100, "unit": "%"},
      {"measurement": "% Control", "setting": "PRKCQ", "value": 66, "unit": "%"},
      {"measurement": "% Control", "setting": "PRKD2", "value": 63, "unit": "%"},
      {"measurement": "% Control", "setting": "RIPK1", "value": 100, "unit": "%"},
      {"measurement": "% Control", "setting": "[2]", "value": 66, "unit": "%"},
      {"measurement": "% Control", "setting": "[3]", "value": 100, "unit": "%"},
      {"measurement": "% Control", "setting": "SNRK", "value": 94, "unit": "%"},
      {"measurement": "% Control", "setting": "TNK2", "value": 1.1, "unit": "%"},
      {"measurement": "% Control", "setting": "TRKB", "value": 29, "unit": "%"},
      {"measurement": "% Control", "setting": "TTK", "value": 3.5, "unit": "%"},
      {"measurement": "% Control", "setting": "ULK3", "value": 84, "unit": "%"},
      {"measurement": "% Control", "setting": "VRK2", "value": 39, "unit": "%"},
      {"measurement": "% Control", "setting": "YANK3", "value": 100, "unit": "%"}
    ]}
  ]
}
